# From patent US20200383926A1, “ENTERIC COATED PHARMACEUTICAL COMPOSITION AND USE THEREOF” (SHIN ERA TECHNOLOGY CO. LTD., priority 2017, published 2020)
# Assay: Phosphate binding assay (molybdate colorimetry, OD700) at pH 8.3
# Settings: KH2PO4 0.53M, room temperature (about 25° C.), 2 hours
# Procedure: Since the phosphate uptake in human body mostly takes place in the intestine instead of stomach, we tested the phosphate-binding ability of the aforesaid 60% deacetylation chitosan citrate (CHS-60L) and 90% deacetylation chitosan citrate (CHS-90L) in an environment of pH 8.3, which mimicked to the intestine environment in vivo.
# Briefly, KH2PO4 and the present chitosan citrate were mixed at room temperature (about 25° C.) for 2 hours. Then, 2 μl of the mixture of each group (and KH2PO4 without reaction with binding agents) was mixed with 120 μl of acetate buffer (0.1 N acetic acid and 0.025 N of CH3COONa), 12 μl of ascorbic acid (1 wt %), and […] of NH4MoO4 (1%, in 0.05 N H2SO4) at room temperature for 20 to 30 minutes. After that, the OD700 of the mixture was detected by spectrometer. The conventional phosphate binding agent, calcium carbonate, was used as positive control of the experiment.
structure (smiles),measurement,setting,value
O=C([O-])[O-].[Ca+2] [calcium carbonate],Binding ability (%),binding agent 10 mM,70.90%
same,Binding ability (%),binding agent 20 mM,75.40%
